{
  "source": "patent US20210038589A1",
  "about": "“USES, COMPOSITIONS AND METHODS” (priority 2018, published 2021)",
  "key": {"[1]": {"system": "gamma oscillations in mouse hippocampal slices", "test": "Prevention of Aβ-induced degradation of kainate-induced gamma oscillations in hippocampal slices (interface chamber)", "assay_type": "cell-based", "details": "50 nM Aβ in last 15 min, 100 nM KA", "procedure": "Previously we have characterized the effects of acute Aβ on the hippocampal circuitry of WT mice. […] During the last 15 min 50 nM Aβ was added to the incubation solution. […] Control experiments were also performed by incubating slice just with ACSF for 1 h (with Aβ present for the last 15 min) or incubating just with ACSF for 1 h. […] Pmzd 10 μM: 9.95±1.82×10^-9V^2, n=10, p<0.0001 vs Aβ, FIGS. 4A,B,C,F, light and dark green, respectively). […] Horizontal sections (350 μm thick) of the ventral hippocampi of both hemispheres were prepared with a Leica VT1200S vibratome (Leica Microsystems). Immediately after cutting, slices were transferred into a humidified interface holding chamber containing standard ACSF (in mM): 124 NaCl, 30 NaHCO3, 10 glucose, 1.25 NaH2PO4, 3.5 KCl, 1.5 MgCl2, 1.5 CaCl2, continuously supplied with humidified carbogen. The chamber was held at 34° C. during slicing and subsequently allowed to cool down to room temperature ( 22° C.) for a minimum of 1 hour. Recordings were carried out in hippocampal area CA3 with borosilicate glass microelectrodes, pulled to a resistance of 3-7 MΩ. Local field potential (LFP) were recorded using microelectrodes filled with ACSF placed in CA3 stratum pyramidale. LFP oscillations were elicited by applying kainic acid (100 nM) to the extracellular bath, Interface chamber LFP recordings were performed with a 4-channel […] amplifier (University of Cologne, Germany). Submerged chamber LFP recordings and patch-clamp recordings were performed using a Multiclamp 700B (Molecular Devices, CA, USA). In order to maintain stable LFP oscillations all recordings were performed at 34° C. with a perfusion rate of 3-5 ml per minute of aerated ACSF containing 100 nM Kainate. The oscillations were allowed to stabilize for at least 20 minutes before any recordings were performed. Power spectra density plots (from 60 s long LFP recordings) were calculated in averaged Fourier-segments of 8192 points using Axograph X (Kagi, Berkeley, Calif., USA). […] Coefficient of rhythmicity (Cr) was calculated in order to assess the rhythmicity of gamma oscillations (26, 27) and was defined as Cr=(α-β)/(α+β) were α corresponds to the value of the height of the second peak and β to the first valley in the normalized autocorrelogram. […] Only recordings having Cr≥0.01 were considered rhythmic."}, "[2]": {"system": "gamma oscillations in mouse hippocampal slices", "test": "Rescue of gamma oscillations previously degraded by Aβ in hippocampal slices (submerged chamber)", "assay_type": "cell-based", "details": "Aβ still present", "protocol": "Hippocampal slices were placed in a submerged recording chamber where gamma oscillations were induced by bath perfusion of 100 nM KA and allowed to stabilize for 20-30 min. Continuous recordings of LFP gamma oscillations were performed in 4 different conditions (FIG. 5). All groups were initially activated with Kainate. In a control group of slices oscillations were recorded for 40 min after stabilization without any other compound addition (control, n=5, grey). All other groups were perfused with 1 μM Aβ after stabilization of the oscillations for a minimum of 20 min. For these experiments the concentration of Aβ applied was increased to 1 μM in order to overcome the method-dependent lower signal amplitude due to the submerged recording conditions (8).\nHippocampal slices were placed on a submerged recording chamber where gamma oscillations were induced by bath perfusion of 100 nM Kainate and allowed to stabilize for 20-30 minutes. Continuous recordings of LFP gamma oscillations were performed in 3 different conditions. All groups were initially activated with kainate. In a control group of slices oscillations were recorded for 40 minutes after their stabilization without any other compound addiction (control, n=5; see FIG. 5). All the other groups were perfused with Aβ 1 μM after the stabilization of the oscillations for a minimum of 20 minutes."}},
  "data": [
    {"compound": "Clc1ccc(N2CCN(Cc3c[nH]c4ncccc34)CC2)cc1", "note": "[L745,870]", "values": [
      {"measurement": "gamma oscillation power", "setting": "[1]; 1 h incubation with 500 nM compound", "value": "1.61±0.52 ×10^−9V^2"}
    ]},
    {"compound": "CC(C)(C)CCN1C[C@@H]2[C@@H](CNC(=O)c3cc(Cl)cc(Cl)c3)[C@@H]2C1", "note": "[ML-218]", "values": [
      {"measurement": "gamma power after treatment application, relative to Aβ", "setting": "[2]; 5 μM compound applied after 20 min of 1 μM Aβ", "value": "2.16±0.53 of Aβ"}
    ]},
    {"compound": "CC(C)[C@H]1c2ccc(F)cc2CC[C@@]1(CCN(C)CCCc1nc2ccccc2[nH]1)OC(=O)C1CC1", "note": "[NNC55-0396]", "values": [
      {"measurement": "gamma power after treatment application, relative to Aβ", "setting": "[2]; 10 μM compound applied after 20 min of 1 μM Aβ", "value": "1.85±0.15 of Aβ"}
    ]},
    {"compound": "CC1CCN(CC[C@H]2CCCN2S(=O)(=O)c2cccc(O)c2)CC1", "note": "[SB-269970, ®-3-(2-(2-(4-methylpiperidin-1-yl)ethil)pyrrolidine-1-sulfonyl) phenol]", "values": [
      {"measurement": "gamma oscillation power", "setting": "[1]; 1 h incubation with 1 μM compound", "value": "1.47±0.24 ×10^−9V^2"}
    ]},
    {"compound": "CCN1CCCC1CNC(=O)c1cc(S(N)(=O)=O)ccc1OC", "note": "(centres unmarked) [Sulpiride]", "values": [
      {"measurement": "gamma oscillation power", "setting": "[1]; 1 h incubation with 5 μM compound", "value": "2.23±0.52 ×10^−9V^2"}
    ]}
  ]
}
